Experimental data: patent publication US9682993B2, “Anticancer compounds” (ST. JUDE CHILDREN'S RESEARCH HOSPITAL, priority 2012, dated 2017)

Experiments:
[1] = system: SK-MEL-2 xenograft tumors; assay: In vivo tumor xenograft study; design: species or system C.B-17 scid mice
Description: Xenograft tumors were first established from an SK-MEL-2 cell culture at the St. Jude Children's Research Hospital Xenograft Core. After these tumors were established as a mouse xenograft model, they were routinely maintained in the C.B-17 scid strain (Taconic Farms, Germantown, N.Y.). Experimental animals were prepared by transplanting small pieces of dissected tumors from donor animals into recipient mice. All animal studies were performed in accordance with the St. Jude Children's Research Hospital Animal Care and Use Committee. SK-MEL-2 xenograft tumors were transplanted into male C.B-17 scid mice on Day −21. On Days −7 to −5, a jugular vein catheter was surgically implanted into each mouse. […] Infusions were carried out by placing the animals inside a continuous infusion system (Instech Laboratories, Plymouth Meeting, Pa.), and delivering the vehicle or drug solution via the jugular catheter at a rate of 4 μL/min with a SP230iw syringe pump (WPI, Sarasota, Fla.). […] Tumors were continuously measured during and after infusion periods, 5 times per week (weekdays). Tumor volumes were determined based on the following equation: Tuvol=(δ1/2+δ2/2)^1.5708, where δ1 and δ2 are diameters measured with a caliper at right angles of each other. The size of the tumors ranged from 0.2 to 0.5 cm^3 at the times the infusions were initiated.
The efficacy of compound 20 in the inhibition of tumor growth in mice was evaluated using the methods as described herein above. Thus, SK-MEL-2 tumors were transplanted into male C.B-17 scid mice. The animals were subsequently infused over 4 h with either vehicle (8 mice) or compound 20 (9 mice) for 5 consecutive days.

HeLa = assay: Drug combination assay, HeLa; type: cell-based; details: HeLa cells; combined with AUDA (15 μM)
Description: Preliminary cytotoxic screenings for each drug used in drug combination assays were performed to determine their cytotoxic dose range. […] Eight concentrations were established by 1:3 serial dilutions of the single drugs and their combinations with the splicing modulators. All drug concentrations were evaluated in triplicate in 96-well cell culture plates. Assays of individual drugs and drug combinations were run on the same tissue culture plate. Cell viability was determined using the CellTiter-Glo reagent. Drug interactions, in terms of synergism, additive effect, or antagonism, were based on the drugs' Combination Index (CI) (Chou et al., Adv. Enzyme Regul. 1984, 22, 27).
Luminescence data obtained from the cell viability determinations were formatted per the requirements of the analytical software (viability data range: >0 and <1). The formatted data were analyzed with the software CalcuSyn 2.1 (Biosoft, Cambridge, UK), which provides quantitative CI values for the drug interaction analyses (see ranges in Supplementary Table S2). […] Therefore, in these two cases the drug interaction was evaluated by comparing the IC50 value of Sudemycin with that of the IC50 values resulting from the serial dilutions of the splicing modulator combined with a constant dose of the non-toxic drug.

[2] = Maximum tolerated dose study (weight loss); type: in vivo, C.B-17 scid mice; details: 50 mg/kg four hour infusion daily for five days; day 5 of infusion
Description: Xenograft tumors were first established from an SK-MEL-2 cell culture at the St. Jude Children's Research Hospital Xenograft Core. After these tumors were established as a mouse xenograft model, they were routinely maintained in the C.B-17 scid strain (Taconic Farms, Germantown, N.Y.). Experimental animals were prepared by transplanting small pieces of dissected tumors from donor animals into recipient mice. All animal studies were performed in accordance with the St. Jude Children's Research Hospital Animal Care and Use Committee. SK-MEL-2 xenograft tumors were transplanted into male C.B-17 scid mice on Day −21. On Days −7 to −5, a jugular vein catheter was surgically implanted into each mouse. […] Tumors were continuously measured during and after infusion periods, 5 times per week (weekdays). Tumor volumes were determined based on the following equation: Tuvol=(δ1/2+δ2/2)^1.5708, where δ1 and δ2 are diameters measured with a caliper at right angles of each other. […]
The in vivo effects, e.g. weight loss, of compound 20 were evaluated in mice using the methods described herein above. […] Weight of the test animals was determined daily (5 weight measurements/week). […]

[3] = system: MDM2 alternative splicing in Rh18 cells; assay: In vitro alternative splicing assay (MDM2, RT-PCR); type: cell-based; details: Rh18, 8 h, PCR (FIG. 9)
Description: Briefly, following an 8 h exposure of exponentially growing cells to drug, total RNA was isolated using TRIzol reagent (Invitrogen, Carlsbad, Calif.). Total RNA (1 μg) was used to convert the mRNA to cDNA by using random primers, Oligo(dT)16 and Omniscript Reverse Transcription Kit (Qiagen, Germantown, Md.). PCR analyses were performed using specific oligonucleotides (see Table I) and standard amplification protocols. PCR products were separated by agarose gel electrophoresis, visualized by ethidium bromide staining on an UV transilluminator, and recorded. PCR band sizes were calculated by comparing them to the standard EZ Load 100-bp PCR Molecular Ruler (BioRad Laboratories, Hercules, Calif.).

[4] = 50 mg/kg over 4 h, once a day for 5 days

What does the source list for CNC(=O)O[C@@H](C)/C=C\C(=O)N[C@H]1CC[C@@H](C/C=C(C)/C=C/[C@@H]2C[C@]3(CO3)CC(C)(C)O2)CC1 [compound 20, (S,Z)-5-(((1R,4R)-4-((2E,4E)-5-((3R,5S)-7,7-Methyl-1,6-Dioxaspiro[2.5]Octan-5-Yl)-3-Methylpenta-2,4-Dien-1-Yl)Cyclohexyl)Amino)-5-Oxopent-3-En-2-Yl Methylcarbamate]?
inhibition of tumor growth during the infusion period [1, 4]: 100%; inhibition of tumor growth subsequent to the dosing period [1, 4]: significant inhibition; fatalities or behavioral changes versus control infusion ([1]; infusion over 4 h for 5 consecutive days): No differences in fatalities or behavioral changes; effect of soluble epoxide hydrolase inhibition on IC50 (HeLa): improves the IC50; average weight loss [2]: 12.7%; alternative MDM2 splicing [3]: induction of alternative MDM2 splicing
